Measured values taken from patent US20260256870A1, “SKIN COMPOSITION” (Eaderm Co., Ltd., priority 2019, published 2026).
Structures can show the parent of a compound that is named as a salt.

Tests used:
[1] = test system: human epidermal keratinocytes; assay: Colony formation assay using human epidermal keratinocytes; format: cell-based
Source text: To test whether COL17A1-mediated SCD maintains clonal proliferation of epidermal stem cell clones, the present inventors used a colony formation assay, which is an in vitro assay said to be the gold standard for assessing the self-renewal ability of epidermal stem cells, including cells in the tail epidermis.

[2] = test system: COL17A1; assay: COL17A1 expression in human epidermal keratinocytes by high content imaging (HCS); format: cell-based; details: human epidermal keratinocytes, 48 hours after addition of reagents
Description: The present inventors further searched for substances that induce or maintain the expression of COL17A1. Human epidermal keratinocytes were seeded in 384-well plates, cultured for 48 hours after addition of reagents, immunostained with an anti-COL17A1 antibody and a fluorescently labeled secondary antibody, and then the fluorescence intensity per cell was detected using a high content imaging system (HCS: High Content Screening). In addition to cell counting with DAPI, the expression level of COL17A1 was quantified.

[3] = Table 1, fluorescence intensity per cell

SMILES | Colony area (control ratio) ([1]; Table 1) | Colony number (control ratio) ([1]; Table 1) | COL17A1 expression level (control ratio) [2, 3] | Colony area (control ratio) ([1]; Table 2) | Colony number (control ratio) ([1]; Table 2) | COL17A1 expression level (control ratio) ([2]; Table 2)
CC(CCc1ccc(O)cc1)NCCc1ccc(O)c(O)c1 (stereo not drawn) [Dobutamine Hydrochloride] | ⊚ (one double circle (⊚) indicates maintenance of 1.0-1.2-fold) | ⊚ (one double circle (⊚) indicates maintenance of 1.0-1.2-fold) | ⊚⊚ (two double circles (⊚⊚) in the COL17A1 expression level (control ratio) represent a 2.0-fold or greater increase in the expression level) | – | – | –
O=c1c2ccccc2[se]n1-c1ccccc1 [Ebselen] | ⊚ (one double circle (⊚) indicates maintenance of 1.0-1.2-fold) | ⊚ (one double circle (⊚) indicates maintenance of 1.0-1.2-fold) | ⊚ (one double circle (⊚) represents a 1.2-fold or greater increase) | – | – | –
C#C[C@]1(O)CC[C@H]2[C@@H]3CCc4cc(O)ccc4[C@H]3CC[C@@]21C [Ethynyl Estsadiol] | ⊚ (one double circle (⊚) indicates maintenance of 1.0-1.2-fold) | ⊚ (one double circle (⊚) indicates maintenance of 1.0-1.2-fold) | ⊚⊚ (two double circles (⊚⊚) in the COL17A1 expression level (control ratio) represent a 2.0-fold or greater increase in the expression level) | – | – | –
O=S(=O)(c1cccc2cnccc12)N1CCCNCC1 [Fasudil (HA-1077), Fasudil] | ⊚ (one double circle (⊚) indicates maintenance of 1.0-1.2-fold) | ⊚ (one double circle (⊚) indicates maintenance of 1.0-1.2-fold) | ⊚⊚ (two double circles (⊚⊚) in the COL17A1 expression level (control ratio) represent a 2.0-fold or greater increase in the expression level) | – | – | –
Fc1ccc(C(c2ccc(F)cc2)N2CCN(C/C=C/c3ccccc3)CC2)cc1 [Flunarizine Hydrochloride] | ⊚ (one double circle (⊚) indicates maintenance of 1.0-1.2-fold) | ⊚ (one double circle (⊚) indicates maintenance of 1.0-1.2-fold) | ⊚ (one double circle (⊚) represents a 1.2-fold or greater increase) | – | – | –
CN(C)c1cccc(-c2c3c(=O)n(-c4ccccc4Cl)[nH]c3cc(=O)n2C)c1 [GKT137831] | ○ | ○ | ○ (one circle (0) represents a 1.0-1.2-fold maintenance) | – | – | –
CC(C)=CCC1=C(O)C(=O)c2ccccc2C1=O [Lapachol] | – | – | – | ⊚ (one double circle (⊚) indicates maintenance of 1.0-1.2-fold) | ⊚ (one double circle (⊚) indicates maintenance of 1.0-1.2-fold) | ⊚⊚ (two double circles (⊚⊚) in the COL17A1 expression level (control ratio) represent a 2.0-fold or greater increase in the expression level)
CC(=O)c1ccc2c(c1)Nc1ccccc1S2 [ML171] | ⊚ (one double circle (⊚) indicates maintenance of 1.0-1.2-fold) | ⊚ (one double circle (⊚) indicates maintenance of 1.0-1.2-fold) | ○ (one circle (0) represents a 1.0-1.2-fold maintenance) | – | – | –
CN1C(=O)C(Cc2c[nH]c3ccccc23)NC1=S (stereo not drawn) [Necrostatin-1] | ⊚ (one double circle (⊚) indicates maintenance of 1.0-1.2-fold) | ⊚ (one double circle (⊚) indicates maintenance of 1.0-1.2-fold) | ⊚ (one double circle (⊚) represents a 1.2-fold or greater increase) | – | – | –
OC1(c2ccc(Cl)c(C(F)(F)F)c2)CCN(CCCC(c2ccc(F)cc2)c2ccc(F)cc2)CC1 [Penfluridol] | ⊚ (one double circle (⊚) indicates maintenance of 1.0-1.2-fold) | ⊚ (one double circle (⊚) indicates maintenance of 1.0-1.2-fold) | ⊚ (one double circle (⊚) represents a 1.2-fold or greater increase) | – | – | –
